Laboratory results published in the supplement of paper PMC10307832.

Legend:
Experiment in all cases: relative viability (nuclei count vs DMSO), 5 days (fraction); higher = more cells survive
ALW-II-49-7 + Luminespib = compound: Cc1ccc(C(=O)Nc2cccc(C(F)(F)F)c2)cc1Nc1cncc(C(N)=O)c1 [ALW-II-49-7] + CCNC(=O)c1noc(-c2cc(C(C)C)c(O)cc2O)c1-c1ccc(CN2CCOCC2)cc1 [Luminespib] (partner 0.01 µM)
Procedure, shortened: (§1)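 Relative viability divides the nuclei count in treated wells by that in vehicle wells. Lung cancer cell lines were seeded in 1536-well plates, dosed by pin tool the next day, and fixed and stained after 5 days in one step with final 0.05% Triton X-100, 1% formaldehyde and 1 ug/ml Hoechst. Dosing was a single drug or a fixed anchor-drug dose plus five library-drug doses (not always all listed) in √10 steps, and values are medians of duplicate plates imaged at 4×.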

Dasatinib + Luminespib = compound: Cc1nc(Nc2ncc(C(=O)Nc3c(C)cccc3Cl)s2)cc(N2CCN(CCO)CC2)n1 [Dasatinib] + CCNC(=O)c1noc(-c2cc(C(C)C)c(O)cc2O)c1-c1ccc(CN2CCOCC2)cc1 [Luminespib] (partner 0.01 µM)
Procedure, shortened: as §1

Dasatinib + Phenformin = compound: Cc1nc(Nc2ncc(C(=O)Nc3c(C)cccc3Cl)s2)cc(N2CCN(CCO)CC2)n1 [Dasatinib] + N=C(N)NC(=N)NCCc1ccccc1 [Phenformin] (partner 250 µM)
Procedure, shortened: as §1

Dasatinib + Olaparib = compound: Cc1nc(Nc2ncc(C(=O)Nc3c(C)cccc3Cl)s2)cc(N2CCN(CCO)CC2)n1 [Dasatinib] + O=C(c1cc(Cc2n[nH]c(=O)c3ccccc23)ccc1F)N1CCN(C(=O)C2CC2)CC1 [Olaparib] (partner 8 µM)
Procedure, shortened: as §1

UMC-11
relative viability (ALW-II-49-7 + Luminespib; first compound 0.08 µM): 1.19
relative viability (ALW-II-49-7 + Luminespib; first compound 0.253 µM): 0.939
relative viability (ALW-II-49-7 + Luminespib; first compound 0.8 µM): 1.14
relative viability (ALW-II-49-7 + Luminespib; first compound 2.53 µM): 0.983
relative viability (ALW-II-49-7 + Luminespib; first compound 8 µM): 1
relative viability (Dasatinib + Luminespib; first compound 0.005 µM): 0.874
relative viability (Dasatinib + Luminespib; first compound 0.01581 µM): 0.78
relative viability (Dasatinib + Luminespib; first compound 0.05 µM): 0.607
relative viability (Dasatinib + Luminespib; first compound 0.1581 µM): 0.316
relative viability (Dasatinib + Luminespib; first compound 0.5 µM): 0.328
relative viability (Dasatinib + Phenformin; first compound 0.005 µM): 0.307
relative viability (Dasatinib + Phenformin; first compound 0.01581 µM): 0.332
relative viability (Dasatinib + Phenformin; first compound 0.05 µM): 0.265
relative viability (Dasatinib + Phenformin; first compound 0.1581 µM): 0.234
relative viability (Dasatinib + Phenformin; first compound 0.5 µM): 0.171
relative viability (Dasatinib + Olaparib; first compound 0.005 µM): 0.542
relative viability (Dasatinib + Olaparib; first compound 0.01581 µM): 0.377
relative viability (Dasatinib + Olaparib; first compound 0.05 µM): 0.427
relative viability (Dasatinib + Olaparib; first compound 0.1581 µM): 0.272
relative viability (Dasatinib + Olaparib; first compound 0.5 µM): 0.247
